Results on one compound are retold here after US8450527B2, “Amine derivative compounds for treating ophthalmic diseases and disorders” (Acucela Inc., priority 2007, dated 2013).

What is called ED50 is the midpoint of the dose-response relation.

For this assay, the target named is T1, visual cycle isomerase (Mus musculus, UniProt Q91ZQ5).
T1 construct: The recovery of 11-cis-retinal after bleaching can be used to estimate the activity of isomerase in vivo; from tissue; host or cells: eye (RPE) of living CD-1 albino male mice
T1 sequence (Q91ZQ5 1-533): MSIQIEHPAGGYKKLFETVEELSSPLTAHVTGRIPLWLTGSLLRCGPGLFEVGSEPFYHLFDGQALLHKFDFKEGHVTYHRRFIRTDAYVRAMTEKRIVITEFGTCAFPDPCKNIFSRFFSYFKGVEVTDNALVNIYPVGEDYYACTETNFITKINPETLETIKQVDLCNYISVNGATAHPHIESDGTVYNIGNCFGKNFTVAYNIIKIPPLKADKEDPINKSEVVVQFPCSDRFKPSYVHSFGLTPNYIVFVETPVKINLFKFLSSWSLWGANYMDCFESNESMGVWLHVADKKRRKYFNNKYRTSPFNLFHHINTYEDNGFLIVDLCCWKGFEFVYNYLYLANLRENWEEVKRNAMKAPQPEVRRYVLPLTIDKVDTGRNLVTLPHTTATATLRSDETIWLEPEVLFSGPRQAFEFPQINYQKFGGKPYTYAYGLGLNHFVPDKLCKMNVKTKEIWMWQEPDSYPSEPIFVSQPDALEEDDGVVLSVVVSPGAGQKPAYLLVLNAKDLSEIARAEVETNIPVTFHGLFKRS
The experiment in a line: in vivo murine isomerase assay: recovery of 11-cis-retinal (oxime) after photobleaching. As for the experimental part:
FIG. 1 illustrates isomerase inhibitory activity of the compound of Example 3 (Compound 3). The animals were orally gavaged with 1 mg/kg compound, then “photo-bleached” (5000 Lux white light for 10 minutes) at 4, 24 and 48 hours after dosing, and returned to darkness to allow recovery of the 11-cis-retinal content of the eyes. Mice were sacrificed 2 hours after bleaching, eyes were enucleated, and retinoid content was analyzed by HPLC.
FIG. 2 illustrates concentration-dependent inhibition of isomerase activity by the compound of Example 19 (Compound 19). […] Five animals were included in each treatment group. The error bars correspond to standard error.
A method for determining the effect of a compound on isomerase activity may be performed in vitro as described herein and in the art (Stecher et al., J Biol Chem 274:8577-85 (1999); see also Golczak et al., Proc. Natl. Acad. Sci. USA 102:8162-67 (2005)). Retinal pigment epithelium (RPE) microsome membranes isolated from an animal (such as bovine, porcine, human, for example) may serve as the source of the isomerase. The capability of the amine derivative compounds to inhibit isomerase may also be determined by an in vivo murine isomerase assay. Brief exposure of the eye to intense light (“photobleaching” of the visual pigment or simply “bleaching”) is known to photo-isomerize almost all 11-cis-retinal in the retina. […]

Take `CCCC(O)(CCC)CCc1cccc(C(O)CCN)c1` (centres unmarked) [Example 19, 4-(3-(3-amino-1-hydroxypropyl)phenethyl)heptan-4-ol]: the “inhibition of 11-cis retinal (oxime) recovery” value (FIG. 2A/2B, dose response) is “dose related”. Moreover, the ED50 (mouse, read-out: ED50 (dose of compound that gives 50% inhibition of 11-cis retinal (oxime) recovery), FIG. 2, five animals per treatment group, estimated from dose response) is around 0.651 mg/kg.
